One block for each compound: values may come before it.
Tests used:
[1] = test system: Clock^Δ19/+ PER2::Luc reporter cells; test: High-throughput chemical screen, PER2::Luc reporter rhythm; assay type: cell-based, mouse; conditions: for PER2::Luc reporter rhythm / circadian amplitude: Clock^Δ19/+ cells, forskolin pre-stimulated
Experimental: Specifically, the chemical screen for circadian clock modulators was conducted at the Chemical Genomics Core facility at the University of Texas Health Science Center at Houston (UTHSC-H). The in-house chemical library screened consisted of compounds from the National Institutes of Health (NIH) Clinical Collection, National Cancer Institute collection, and Microsource Spectrum Collection. Screening was conducted largely on the basis of the protocol previously described (Chen et al., 2012). […] Upon confluency, cells were incubated with 5 μM forskolin for 1-2 hr, followed by the addition of chemical compounds to the plates with robotic arms (Beckman), and then subjected to continuous monitoring over several days in a temperature-controlled EnVision microplate reader (Perkin Elmer). Data analysis was carried out by using the MultiCycle software (Actimetrics) for measurement of period, phase, and amplitude. The chemical screen for circadian clock modulators was conducted at the Chemical Genomics Core facility at the UTHSC-H. The in-house chemical library screened consists of compounds from NIH Clinical Collection, NCI collection and Microsource Spectrum Collection. The screening was conducted largely based on the protocol previously described (Chen et al., 2012). […] Cells were then incubated with 5 μM forskolin for 1-2 h followed by the addition of chemical compounds to the plates with robotic arms (Beckman), and then subjected to continuous monitoring over several days in a temperature-controlled EnVision microplate reader (Perkin Elmer). Data analysis was carried out by using the MultiCycle software (Actimetrics) for measurement of period, phase, and amplitude. […] Tissue explant experiments were conducted as described previously (Chen et al., 2012).

[2] = test system: Bmal1 promoter with RORα/γ knockdown; test: Bmal1 promoter-driven luciferase reporter in U2OS cells; assay type: cell-based
GAL4 DBD-RORγ LBD = target: T1, GAL4 DBD-RORγ LBD (Mus musculus, UniProt P51450); test: Mammalian one-hybrid reporter assay in HEK293T cells, GAL4-RORγ; assay type: cell-based; conditions: ligand interaction reduces transcriptional activity
T1 construct: RORγ-LBD (aa 250-516); expressed in transfected cells; host or cells: HEK293T
T1 sequence (P51450 250-516): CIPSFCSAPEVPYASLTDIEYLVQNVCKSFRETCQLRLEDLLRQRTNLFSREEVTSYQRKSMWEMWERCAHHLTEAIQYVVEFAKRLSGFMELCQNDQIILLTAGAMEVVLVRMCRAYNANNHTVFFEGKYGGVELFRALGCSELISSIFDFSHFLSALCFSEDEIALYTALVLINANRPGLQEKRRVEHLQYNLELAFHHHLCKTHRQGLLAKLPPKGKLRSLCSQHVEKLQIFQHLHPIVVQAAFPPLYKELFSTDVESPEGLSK
From the text: (§1) Plasmids containing the retinoic acid-related orphan receptor response element (RORE) from mouse Bmal1 promoter, pcDNA3.1B-G4DBD-RORαLBD and pcDNA3.1BG4DBD-RORγLBD were constructed in our lab. Specifically, the 1960 bp sequences (−1830/+130) of the mouse Bmal1 promoter harboring either WT ([…] (SEQ ID NO:1) and […] (SEQ ID NO:2)) or mutant ([…] (SEQ ID NO:3)) RORE were PCR amplified from mouse genomic DNA and cloned into pGL3-promoter luciferase vector. For expression of RORα or RORγ-GAL4 protein, mouse RORα-LBD (aa 261-523) or RORγ-LBD (aa 250-516) were PCR amplified from mouse genomic DNA and cloned into a GAL4-DBD-containing vector, pcDNA3.1B.
(§2) For mammalian one-hybrid assays, HEK293T cells were cotransfected with pcDNA3.1B-G4DBD-RORα/γLBD, pGL4.31 and TK promoter Renilla luciferase construct (tK.pRL). To investigate the regulation of the Bmal1 reporter, Hepa1-6 cells were cotransfected with Bmal1-WT or mutant RORE reporter plasmids, RORα, RORγ or Rev-erbα expression construct along with tK.pRL. Mouse and human siRNA targeting RORα and RORγ were purchased from Santa Cruz. Transfection was performed by Lipfectamine 2000 reagent (Invitrogen) Twenty-four hours after transfection, the cells were treated with vehicle or NOB. Lysates were collected 24 h after treatment, and firefly and Renilla luciferase activities were measured by using a Dual-Luciferase Reporter System (Promega).
(§3) For radio-ligand receptor binding assays, previously described protocols with minor modifications (Kumar et al., 2010; Wang et al., 2010b) were adopted.

GAL4 DBD-RORα LBD = target: T2, GAL4 DBD-RORα LBD (Mus musculus, UniProt P51448); test: Mammalian one-hybrid reporter assay in HEK293T cells, GAL4-RORα; assay type: cell-based; conditions: ligand interaction reduces transcriptional activity
T2 construct: mouse RORα-LBD (aa 261-523); expressed in transfected cells; host or cells: HEK293T
T2 sequence (P51448 261-523): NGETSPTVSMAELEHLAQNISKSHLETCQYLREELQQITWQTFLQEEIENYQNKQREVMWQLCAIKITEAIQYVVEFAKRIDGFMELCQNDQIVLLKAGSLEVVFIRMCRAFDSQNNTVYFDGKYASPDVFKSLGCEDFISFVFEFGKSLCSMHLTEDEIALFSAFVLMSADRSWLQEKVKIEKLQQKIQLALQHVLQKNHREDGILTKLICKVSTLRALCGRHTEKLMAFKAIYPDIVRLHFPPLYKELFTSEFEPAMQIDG
From the text: as §1, §2, §3

[3] = test system: core clock genes in PER2::LucSV cells; test: Real-time qPCR and Western blot of clock genes in PER2::LucSV cells; assay type: cell-based, mouse
Experimental: For qPCR analysis, cells were split into 6-well plates at an initial density of 3×10^5 cells and incubated for 2-4 days before synchronization (5 μM Fsk or 100 nM Dex) followed by compound treatment. RNA samples were prepared by using PureXtract RNAsol for cDNA synthesis and real-time PCR (GenDEPOT) was performed with a MaxPro3000 Thermocycler (Agilent). qPCR primers used are listed in the table shown in Example 4. Whole cell lysates from cells similarly grown and treated in 60 mm dishes and tissue extracts were prepared as described (Yoo et al., 2013) and subjected to Western blot analysis (GenDEPOT). Antibodies for REV-ERBα (Pierce and Cell Signaling), PER1 (Lee et al., 2001) and other clock proteins (Yoo et al., 2013) were used.

SMILES: COc1ccc(-c2cc(=O)c3c(OC)c(OC)c(OC)c(OC)c3o2)cc1OC [nobiletin]
- PER2::Luc reporter rhythm / circadian amplitude [1]: enhance the reporter rhythm
- PER2::Luc reporter rhythm / circadian amplitude ([1]; listed as Nobiletin): significantly enhance circadian amplitude
- induction of Bmal1 reporter after knockdown of RORα/γ by siRNAs [2]: abrogated the nobiletin-mediated induction
- activity on GAL4-RORγ chimeric receptor (GAL4 DBD-RORγ LBD): robust activities
- activity on GAL4-RORα chimeric receptor (GAL4 DBD-RORα LBD): robust activities
- CRY1 protein abundance [3]: slight trend of greater protein abundance
- CRY1 transcript level [3]: markedly reduced transcript level
- Pert transcript levels [3]: moderately altered and reduced at CT20
- expression of other core clock genes [3]: altered
- PER2 proteins ([3]; Western blot): accumulate to greater levels

- activity on GAL4-RORγ chimeric receptor (GAL4 DBD-RORγ LBD): no activities
- activity on GAL4-RORα chimeric receptor (GAL4 DBD-RORα LBD): no activities
SMILES: C[C@@H]1O[C@@H](O[C@H]2[C@H](Oc3cc(O)c4c(c3)O[C@H](c3ccc(O)cc3)CC4=O)O[C@H](CO)[C@@H](O)[C@@H]2O)[C@H](O)[C@H](O)[C@H]1O [naringin, reference compound]
- PER2::Luc reporter rhythm / circadian amplitude [1]: failed to enhance cellular circadian rhythms
- reporter luminescence ([1]; PER2::LUC Clock^Δ19/+ reporter cells): did not enhance the reporter luminescence

— patent US20180296523A1, “USE OF POLYMETHOXYLATED FLAVONES TO AMELIORATE CIRCADIAN RHYTHM DISORDERS” (THE BOARD OF REGENTS OF THE UNIVERSITY OF TEXAS SY, priority 2017, published 2018)
